# Laboratory results from publication PMC6387620 (Nature microbiology, 2018).
# Tested on: E. coli BW25113
# Type: cell-based, Escherichia coli
# Details: n=3
substance,measurement,value
Polymyxin B,Increase in Polymyxin B resistance,five
